Tests used:
[1] = Particle size and polydispersity by DLS of RSV-F replicon LNPs; assay type: physicochemical
Description: A self-replicating replicon encoding RSV F protein was administered to BALB/c mice, 8 animals per group, by bilateral intramuscular vaccinations (50 μL per leg) on days 0 and 21 with the replicon (0.1 and 1 ng) formulated as liposomes with the lipids described below. All liposomes tested were composed of 40% cationic lipid, 10% DSPC, 48% cholesterol and 2% PEG-DMG with similar amounts of RNA. The liposomes were all prepared using the same technique as described above.
% entrapment (% E), Concentration of RNA (Conc), particle size measured by DLS, and polydispersity reported by DLS of LNPs prepared with different cationic lipids

[2] = Percent encapsulation of plasmid DNA in lipid nanoparticles (Quant-iT Ribogreen); assay type: physicochemical
Description: All equipment and disposable supplies are certified free of RNase activity by the manufacturer or rendered RNase free by use of the RNaseZap reagent (LifeTechnologies). Plasmid is encapsulated at a cationic lipid amine to DNA phosphate (N:P) molar ratio of 4:1. Lipids (cationic lipid, DSPC, cholesterol and lipidated PEG) are dissolved in ethanol. The molar ratios are 40:10:38:2, respectively. The mixture is sonicated briefly, then gently agitated for 5 minutes and then maintained at 37° C. until use. Plasmid is exchanged into citrate buffer pH 6.0 by use of Amicon Ultra-15 centrifugal concentrators, and the final concentration is adjusted to 0.053 mg/ml and held at 37° C. until use. An equal volume of lipids in ethanol, plasmid in citrate buffer, and citrate buffer alone are drawn into disposable syringes. Tubing leading from syringes containing lipids and DNA are attached to the T junction, and tubing leading from the syringe containing citrate buffer alone is paired with the tubing exiting the T-junction over a collection vessel containing a stir bar on an active stir plate. Syringes are placed in a syringe pump set to expel contents at a flow rate of 1 ml per minute. The pump is activated, and the collected DNA in lipid nanoparticles is transferred to SnakeSkin dialysis tubing (10,000 MWCO, Thermo Scientific). Material is dialyzed against RNAse- and pyrogen-free 1× phosphate buffered saline overnight at 4° C.
Percent encapsulation of plasmid DNA in lipid nanoparticles is determined using the Quant-iT Ribogreen RNA Assay kit (Life Technologies). The LNP-DNA suspension is assayed in buffer (DNA outside the particle), and buffer plus Triton X-100 detergent (total DNA). The difference calculated is the DNA inside the particle. Prepare a 1000 ng/mL stock using unpackaged plasmid and use this to generate a standard curve (0 ng/ml, 15.63-1000 ng/ml) in TE and TE+0.75% Triton X-100. Prepare LNP-plasmid samples in TE buffer and TE buffer+0.75% Triton X-100 with appropriate dilution so that reading is in the range of standard curve (25 fold). In a 384-well plate (Costar non-treated #3573) add 0.04 ml of standard (in duplicate) or sample (in triplicate) per well. Dilute Ribogreen reagent 240-fold in TE buffer and add 0.06 ml per well. Mix contents of wells and measure fluorescence (excitation=480 nm, emission=520 nm). Subtract background values (no DNA) from standard and test sample values and determine the concentrations of DNA in the samples using the standard curves. Determine the percent encapsulation of the sample by dividing the difference in concentrations between sample+triton and sample in buffer alone by the sample+triton concentration.

[3] = Percent encapsulation of mRNA in lipid nanoparticles (Quant-iT Ribogreen); assay type: physicochemical; details: for % encapsulation mRNA Leptin: Table 2, leptin mRNA in LNP with the cationic lipid
Summary of the method: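 LNPs made by T-junction mixing of ethanolic lipids (cationic lipid:DSPC:cholesterol:PEG lipid 40:10:38:2, N:P 4:1) with mRNA in citrate pH 5.8-6.0, then dialysed against PBS overnight at 4 °C. RiboGreen fluorescence (ex 480/em 520 nm) measured in TE ± 0.75% Triton X-100; encapsulation = (total − free)/total.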

RSV F protein = assay: RSV immunogenicity: IgG titers after two IM immunizations with vA375 RNA expressing RSV-F in LNPs; assay type: in vivo, BALB/c mice; details: IM days 0 and 21, two weeks after two immunizations
[4] = RSV-F replicon LNP prepared for 1st IM
[5] = RSV-F replicon LNP prepared for 2nd IM

Row | Structure (SMILES) | PDI [1, 4] | Size [1, 4] [nm] | PDI [1, 5] | Size [1, 5] [nm] | % Encap. ([2]; hLep plasmid) [%] | % Encap. ([2]; pDNA) [%] | % Encap. ([3]; FLuc mRNA) [%] | % Encap. ([3]; Gluc mRNA) [%] | % encapsulation mRNA Leptin [3] [%] | % Encap. ([3]; hFIX mRNA) [%] | % Encap. ([3]; hLeptin mRNA) [%] | % Encap. ([3]; mEPO mRNA) [%] | Immunogenicity (2wp2, log10 IgG titers) (RSV F protein; 0.1 ng vA375 RNA) [log10 IgG titers] | Immunogenicity (2wp2, log10 IgG titers) (RSV F protein; 1 ng vA375 RNA) [log10 IgG titers]
1 | CCCCCCCCCCCCC(CCOC(=O)CCCCC(COC(=O)CCCCCCC)COC(=O)CCCCCCC)OC(=O)OCCCN(CC)CC (stereo not shown) [Example 1, 2-(10-dodecyl-3-ethyl-8,14-dioxo-7,9,13-trioxa-3-azaoctadecan-18-yl)propane-1,3-diyl dioctanoate] | 0.105 | 139.1 | 0.045 | 131.3 | 93.5 | 94.3 | 94.7 | 97.3 | 97.1 | 94.0 | 97.1 | 95.8 | 3.98 | 4.22
2 | CCCCCCCCCCCCC(CCOC(=O)CCCCC(OCCCCCCCC)OCCCCCCCC)OC(=O)OCCCN(CC)CC (stereo not shown) [Example 16, 3-(((3-(diethylamino)propoxy)carbonyl)oxy)pentadecyl 6,6-bis(octyloxy)hexanoate] | – | – | – | – | 96.7 | 96.4 | 96.8 | 97.9 | 97.7 | 96.9 | 98.1 | 97.9 | – | –
3 | CCCCCCCCCCCCC(CCOC(=O)CCCCC(OCC(CC)CCCC)OCC(CC)CCCC)OC(=O)OCCCN(CC)CC (stereo not shown) [Example 18, 3-(((3-(diethylamino)propoxy)carbonyl)oxy)pentadecyl 6,6-bis((2-ethylhexyl)oxy)hexanoate] | 0.13 | 132.2 | 0.065 | 139.8 | – | – | – | – | 97.1 | – | – | – | 3.5 | 4.26
4 | CCCCCCCCCC(=O)OCCC(CC(CCCCCCCC)CCCCCCCC)OC(=O)OCCCN(C)C (stereo not shown) [Example 70, 3-(((3-(dimethylamino)propoxy)carbonyl)oxy)-5-octyltridecyl decanoate] | 0.121 | 133.7 | 0.118 | 141.7 | – | – | – | – | 98.3 | – | – | – | 3.90 | 4.37
5 | CCCCC/C=C\C/C=C\CCCCCCCC(=O)OCC(COC(=O)CCCCCCC/C=C\C/C=C\CCCCC)OC(=O)CCC(CCCCCCCCCCCC)OC(=O)OCCCN(C)C (stereo not shown) [Example 80, (9Z,9′Z,12Z,12′Z)-2-((4-(((3-(dimethylamino)propoxy)carbonyl)oxy)hexadecanoyl)oxy)propane-1,3-diyl bis(octadeca-9,12-dienoate)] | – | – | – | – | – | – | 85.3 | – | – | – | – | 96.2 | – | –
6 | CCCCC/C=C\C/C=C\CCCCCCCCC(CCC(=O)OC(COC(=O)CCCCCCC)COC(=O)CCCCCCC)OC(=O)OCCCN(C)C (stereo not shown) [Example 94, 2-(((13Z,16Z)-4-(((3-(dimethylamino)propoxy)carbonyl)oxy)docosa-13,16-dienoyl)oxy)propane-1,3-diyl dioctanoate] | – | – | – | – | 95.0 | 89.3 | 93.7 | 95.9 | 98.1 | 96.9 | 98.1 | 96.4 | – | –
